Assay results taken from ChEMBL document CHEMBL1201862, “PubChem BioAssay data set” (2004).
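Interpolation was linear, between the two tested concentrations surrounding the appropriate level; five concentrations were tested over 48 hours in 96-well plates. At the GI50, growth is halved.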 Calls of active or inactive are those of the source. Rule as the data show it: active = GI50 up to about 1.1 µM and inactive = higher.

Legend:
Assay in all cases: DTP human tumour cell line panel, 48 h
SK-MEL-2 = tested on: SK-MEL-2
SF-539 = tested on: SF-539
SF-295 = tested on: SF-295
HCC 2998 = tested on: HCC 2998
EKVX = tested on: EKVX
UO-31 = tested on: UO-31
SNB-19 = tested on: SNB-19
A549 = tested on: A549
KM12 = tested on: KM12
UACC-62 = tested on: UACC-62
OVCAR-5 = tested on: OVCAR-5
SF-268 = tested on: SF-268
A498 = tested on: A498
HCT-15 = tested on: HCT-15
M14 = tested on: M14
CAKI-1 = tested on: CAKI-1
SNB-75 = tested on: SNB-75
MCF7 = tested on: MCF7
NCI/ADR-RES = tested on: NCI/ADR-RES

Compound	GI50 (SK-MEL-2)	GI50 (SF-539)	GI50 (SF-295)	GI50 (HCC 2998)	GI50 (EKVX)	GI50 (UO-31)	GI50 (SNB-19)	GI50 (A549)	GI50 (KM12)	GI50 (UACC-62)	GI50 (OVCAR-5)	GI50 (SF-268)	GI50 (A498)	GI50 (HCT-15)	GI50 (M14)	GI50 (CAKI-1)	GI50 (SNB-75)	GI50 (MCF7)	GI50 (NCI/ADR-RES)
O=C(Nc1c(Cl)cc([N+](=O)[O-])cc1Cl)/C(=N\Nc1cccc(Cl)c1)c1c(O)c2ccccc2oc1=O	> 100 µM (inactive)	> 100 µM (inactive)	> 100 µM (inactive)	> 100 µM (inactive)	26.4 µM (inactive)	23.6 µM (inactive)	87.1 µM (inactive)	> 100 µM (inactive)	> 100 µM (inactive)	89.5 µM (inactive)	31.3 µM (inactive)	69.8 µM (inactive)	21.2 µM (inactive)	–	–	–	–	–	–
N#CC(/C(CCCC(=O)Nc1cccc([N+](=O)[O-])c1)=N/NC(=O)c1cc2ccccc2cc1O)c1ccccc1 (configuration not stated)	–	27.4 µM (inactive)	39.1 µM (inactive)	36.6 µM (inactive)	23.2 µM (inactive)	6.56 µM (inactive)	28.8 µM (inactive)	47.3 µM (inactive)	62.2 µM (inactive)	15.8 µM (inactive)	36.5 µM (inactive)	48.1 µM (inactive)	35.3 µM (inactive)	17.9 µM	16.3 µM (inactive)	28 µM (inactive)	> 100 µM (inactive)	–	–
COc1cc2c(c(O)c1O)C(=O)C1CCC(=O)N1C2c1cccc2ccccc12 (configuration not stated)	> 50 µM (inactive)	> 50 µM (inactive)	> 50 µM (inactive)	–	> 50 µM (inactive)	> 50 µM (inactive)	> 50 µM (inactive)	30.3 µM (inactive)	> 50 µM (inactive)	49.9 µM (inactive)	> 50 µM (inactive)	> 50 µM (inactive)	> 50 µM (inactive)	> 50 µM	> 50 µM (inactive)	–	> 50 µM (inactive)	> 50 µM (inactive)	> 50 µM (inactive)
CC(=O)Oc1ccc(O)c2c1CCCC2	> 100 µM (inactive)	> 100 µM (inactive)	> 100 µM (inactive)	> 100 µM (inactive)	64.9 µM (inactive)	> 45.5 µM (inactive)	> 100 µM (inactive)	> 100 µM (inactive)	> 100 µM (inactive)	> 75.5 µM (inactive)	> 100 µM (inactive)	58.3 µM (inactive)	> 31.6 µM (inactive)	13.4 µM	24.2 µM (inactive)	31.1 µM (inactive)	> 100 µM (inactive)	–	–
O=c1c2ccccc2oc2nccnc12	> 100 µM (inactive)	> 100 µM (inactive)	> 100 µM (inactive)	> 100 µM (inactive)	> 100 µM (inactive)	> 100 µM (inactive)	> 100 µM (inactive)	> 100 µM (inactive)	> 100 µM (inactive)	> 100 µM (inactive)	> 100 µM (inactive)	> 100 µM (inactive)	> 100 µM (inactive)	> 100 µM	> 100 µM (inactive)	> 100 µM (inactive)	> 100 µM (inactive)	–	–
CCOC(=O)C1C=C1C(C)(C)O (configuration not stated)	> 10 µM (inactive)	> 10 µM (inactive)	> 10 µM (inactive)	–	> 10 µM (inactive)	> 10 µM (inactive)	> 10 µM (inactive)	> 10 µM (inactive)	> 10 µM (inactive)	–	> 10 µM (inactive)	> 10 µM (inactive)	> 10 µM (inactive)	> 10 µM	> 10 µM (inactive)	–	> 10 µM (inactive)	> 10 µM (inactive)	–
C[N+](C)(C)CC1CCCCC1O (configuration not stated)	> 100 µM (inactive)	> 100 µM (inactive)	> 100 µM (inactive)	> 100 µM (inactive)	–	> 100 µM (inactive)	–	–	–	> 100 µM (inactive)	> 100 µM (inactive)	> 100 µM (inactive)	> 100 µM (inactive)	> 100 µM	> 100 µM (inactive)	> 100 µM (inactive)	> 100 µM (inactive)	–	–
COC1=CC(C2c3cc4c(cc3[C@@H](Nc3ccc([N+](=O)[O-])cc3)C3COC(=O)[C@H]23)OCO4)=CC(=O)C1=O (some centres not stated)	17 µM (inactive)	1.82 µM (inactive)	2.09 µM (inactive)	2.63 µM (inactive)	7.57 µM (inactive)	6.24 µM (inactive)	3.07 µM (inactive)	0.923 µM (active)	4.53 µM (inactive)	2.18 µM (inactive)	5.53 µM (inactive)	2.53 µM (inactive)	1.84 µM (inactive)	3.27 µM	3.29 µM (inactive)	2.64 µM (inactive)	1.54 µM (inactive)	–	–
COC(=O)C[S+]([O-])c1ccccc1 (configuration not stated)	35.6 µM (inactive)	20.9 µM (inactive)	36.6 µM (inactive)	25.3 µM (inactive)	50.7 µM (inactive)	4.63 µM (inactive)	37.8 µM (inactive)	26.8 µM (inactive)	28.3 µM (inactive)	29.2 µM (inactive)	68.4 µM (inactive)	14 µM (inactive)	49.8 µM (inactive)	28.7 µM	37.3 µM (inactive)	58.1 µM (inactive)	> 10 µM (inactive)	–	–
